Laboratory results reported in patent publication US8580842B2, “Heteroaryl-substituted 1,3-dihydroindol-2-one derivatives and medicaments containing them” (Abbott GmbH & Co. KG, priority 2003, dated 2013).
Where a name gives a salt, the structure may show the parent alone.

target: T1, human V1b receptors (Homo sapiens, UniProt P47901); test: Vasopressin V1b receptor binding assay; details: membranes from CHO-K1 cells expressing human V1b receptors, displacement of 1.5 nM 3H-AVP; read-out: Binding affinity for the vasopressin V1b receptor
T1 construct: expressed in transfected cells; host or cells: CHO-K1 (membrane preparation V1b-3H2)
T1 sequence (P47901 1-424): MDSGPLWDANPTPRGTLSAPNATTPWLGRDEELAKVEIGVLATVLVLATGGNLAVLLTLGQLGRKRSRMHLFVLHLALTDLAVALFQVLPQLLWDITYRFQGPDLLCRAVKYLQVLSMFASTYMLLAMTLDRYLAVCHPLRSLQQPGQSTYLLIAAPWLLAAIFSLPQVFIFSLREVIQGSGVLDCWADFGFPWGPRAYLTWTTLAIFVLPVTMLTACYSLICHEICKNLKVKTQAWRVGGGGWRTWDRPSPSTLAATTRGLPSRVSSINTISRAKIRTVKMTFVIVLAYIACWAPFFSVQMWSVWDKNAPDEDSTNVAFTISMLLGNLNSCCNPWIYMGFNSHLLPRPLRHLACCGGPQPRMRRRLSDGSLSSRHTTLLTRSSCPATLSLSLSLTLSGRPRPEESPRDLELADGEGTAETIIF
Method: Vasopressin V1b Receptor Binding Assay
The binding of the compounds of this invention to the vasopressin V1b receptor was determined with the following assay:
Compounds were dissolved in a concentration of 10^−2 M or 10^−3 M in DMSO. Further dilutions were performed with water.
The procedure for the binding assay was based on the method of Tahara et al. (Tahara A et al., Brit. J. Pharmacol. 125, 1463-1470 (1998)). Assays (0.250 ml) consisted of membranes (58 μg protein) from CHO-K1 cells permanently expressing human V1b receptors (preparation V1b-3H2, containing protease inhibitors, Roche complete Mini #1836170), 1.5 nM ^3H-AVP (8-Arg-vasopressin, NET 800) in incubation buffer (total binding) and different concentrations of test compound (displacement). Non-specific binding was defined with 10^−6 M AVP. Assays were performed in triplicate.
Incubation buffer: 50 mM Tris, 10 mM MgCl2, 0.1% BSA adjusted to pH 7.4 with HCl.
After incubation, 60 min at room temperature, bound and free radioligand was separated by filtration under vacuum through Whatman GF/B glass fibre mats using a Skatron cell harvester 7000.
Liquid scintillation counting was performed in beta-counters, Tricarb model 2000 or 2200CA (Packard). Dpm were calculated by a programme with standardisation using a standard quench series.
Evaluation of binding parameters was performed by non-linear regression analysis with SAS. The strategy of this program is similar to the program LIGAND described by Munson and Rodbard (Munson PJ and Rodbard D, Analytical Biochem 107, 220-239 (1980)).

Ki [nM] | Compound
< 50 | COc1ccccc1C1(N2C[C@H](O)C[C@H]2C(=O)N(C)C)C(=O)N(S(=O)(=O)c2ccc(C)cn2)c2ccc(Cl)cc21 (single isomer, unassigned) [Example 51]
< 50 | COc1ccc(S(=O)(=O)N2C(=O)C(c3cccnc3OC)(N3C[C@H](O)C[C@H]3C(=O)N(C)C)c3cc(C#N)ccc32)c(OC)c1 (single isomer, unassigned) [Example 232]
< 50 | COc1ccc(S(=O)(=O)N2C(=O)C(c3cnc(OC)nc3OC)(N3C[C@H](O)C[C@H]3C(=O)N(C)C)c3cc(Cl)ccc32)cc1 (single isomer, unassigned) [Example 236]
50 to 500 | COc1ccccc1S(=O)(=O)N1C(=O)C(c2cccnc2OC)(N2C[C@H](O)C[C@H]2C(=O)N(C)C)c2cc(Cl)ccc21 (single isomer, unassigned) [Example 241]
< 50 | COc1ccc(S(=O)(=O)N2C(=O)C(c3nc4ccccc4s3)(N3C[C@H](O)C[C@H]3C(=O)N(C)C)c3cc(Cl)ccc32)c(OC)c1 (single isomer, unassigned) [Example 2]
< 50 | COc1ccc(S(=O)(=O)N2C(=O)C(c3ccc[nH]c3=O)(N3C[C@H](O)C[C@H]3C(=O)N(C)C)c3cc(Cl)ccc32)c(OC)c1 (stereo partly drawn) [Example 224, (2S,4R)-1-[5-Chloro-1-(2,4-dimethoxy-benzenesulfonyl)-2-oxo-3-(2-oxo-1,2-dihydro-pyridin-3-yl)-2,3-dihydro-1H-indol-3-yl]-4-hydroxy-pyrrolidine-2-carlboxylic acid dimethylamide]
< 50 | COc1ncccc1C1(N2C[C@H](O)C[C@H]2C(=O)N(C)C)C(=O)N(S(=O)(=O)c2cccs2)c2ccc(Cl)cc21 (single isomer, unassigned) [Example 270]
< 50 | COc1ccc(S(=O)(=O)N2C(=O)C(c3nccnc3OC)(N3C[C@H](O)C[C@H]3C(=O)N(C)C)c3cc(I)ccc32)c(OC)c1 (single isomer, unassigned) [Example 243]
< 50 | COc1ccc(S(=O)(=O)N2C(=O)C(c3ncccc3OC)(N3C[C@H](O)C[C@H]3C(=O)N(C)C)c3cc(Cl)ccc32)c(OC)c1 (single isomer, unassigned) [Example 9]
50 to 500 | COc1ccc(S(=O)(=O)N2C(=O)C(c3cccnc3OC)(N3C[C@H](O)C[C@H]3C(=O)N(C)C)c3cc(Cl)ccc32)c(OC)c1 (single isomer, unassigned) [Example 6]

The remaining lines, values behind:

Compound | Ki [nM]
COc1ccccc1C1(N2C[C@H](O)C[C@H]2C(=O)N(C)C)C(=O)N(S(=O)(=O)c2sccc2OC)c2ccc(Cl)cc21 (single isomer, unassigned) [Example 256] | < 50
COc1ncccc1C1(OC(=O)N2CCN(C3CCN(C)CC3)CC2)C(=O)N(S(=O)(=O)c2ccc(C#N)cc2)c2ccc(Cl)cc21 (stereo not shown) [Example 113, 4-(1-Methyl-piperidin-4-yl)-piperazine-1-carboxylic acid 5-chloro-1-(4-cyano-benzenesulfonyl)-3-(2-methoxy-pyridin-3-yl)-2-oxo-2,3-dihydro-1H-indol-3-yl ester diacetate] | < 50
COc1ccccc1C1(N2C[C@H](O)C[C@H]2C(=O)N(C)C)C(=O)N(S(=O)(=O)c2cccc3cccnc23)c2ccc(Cl)cc21 (single isomer, unassigned) [Example 28] | < 50
COc1ccccc1C1(N2C[C@H](O)C[C@H]2C(=O)N(C)C)C(=O)N(S(=O)(=O)c2cccc(C)n2)c2ccc(Cl)cc21 (single isomer, unassigned) [Example 253] | < 50
COc1ccccc1C1(N2C[C@H](O)C[C@H]2C(=O)N(C)C)C(=O)N(S(=O)(=O)c2ccc(Cl)s2)c2ccc(Cl)cc21 (single isomer, unassigned) [Example 31] | < 50
CCOc1ccccc1C1(NC(=O)N2CCN(C3CCN(C)CC3)CC2)C(=O)N(S(=O)(=O)c2cccc3cccnc23)c2ccc(OC)cc21 (stereo not shown) [Example 83, 4-(1-Methyl-piperidin-4-yl)-piperazine-1-carboxylic acid [3-(2-ethoxy-phenyl)-5-methoxy-2-oxo-1-(quinoline-8-sulfonyl)-2,3-dihydro-1H-indol-3-yl]-amide] | < 50
COc1ncccc1C1(N2C[C@H](O)C[C@H]2C(=O)N(C)C)C(=O)N(S(=O)(=O)c2cccs2)c2ccc(C#N)cc21 (single isomer, unassigned) [Example 277] | 50 to 500
CCOc1ccccc1C1(OC(=O)N2CCN(C3CCN(C)CC3)CC2)C(=O)N(S(=O)(=O)c2cccc3cccnc23)c2ccc(OC)cc21 (stereo not shown) [Example 154, 4-(1-Methyl-piperidin-4-yl)-piperazine-1-carboxylic acid 3-(2-ethoxy-phenyl)-5-methoxy-2-oxo-1-(quinoline-8-sulfonyl)-2,3-dihydro-1H-indol-3-yl ester] | < 50
COc1ccccc1C1(N2C[C@H](O)C[C@H]2C(=O)N(C)C)C(=O)N(S(=O)(=O)c2cc(C)ccn2)c2ccc(Cl)cc21 (single isomer, unassigned) [Example 252] | < 50
COc1ccccc1C1(OC(=O)N2CCN(C3CCN(C)CC3)CC2)C(=O)N(S(=O)(=O)c2cccs2)c2ccc(F)cc21 (stereo not shown) [Example 136, 4-(1-Methyl-piperidin-4-yl)-piperazine-1-carboxylic acid 5-fluoro-3-(2-methoxy-phenyl)-2-oxo-1-(thiophene-2-sulfonyl)-2,3-dihydro-1H-indol-3-yl ester] | < 50
COc1ccc(S(=O)(=O)N2C(=O)C(NC(=O)C3CCN(c4ccncc4)CC3)(c3cccnc3OC)c3cc(Cl)ccc32)c(OC)c1 (stereo not shown) [Example 82, 3,4,5,6-Tetrahydro-2H-[1,4′]bipyridinyl-4-carboxylic acid [5-chloro-1-(2,4-dimethoxy-benzenesulfonyl)-3-(2-methoxy-pyridin-3-yl)-2-oxo-2,3-dihydro-1H-indol-3-yl]-amide] | < 50
COc1ccccc1C1(OC(=O)N2CCC(N3CCN(C)CC3)CC2)C(=O)N(S(=O)(=O)c2cccs2)c2ccc(C)cc21 (stereo not shown) [Example 130, 4-(4-Methyl-piperazin-1-yl)-piperidine-1-carboxylic acid 3-(2-methoxy-phenyl)-5-methyl-2-oxo-1-(thiophene-2-sulfonyl)-2,3-dihydro-1H-indol-3-yl ester dihydrochloride] | < 50
COc1ncccc1C1(OC(=O)N2CCC(N3CCN(C)CC3)CC2)C(=O)N(S(=O)(=O)c2ccccc2)c2ccc(Cl)cc21 (stereo not shown) [Example 103, 4-(4-Methyl-piperazin-1-yl)-piperidine-1-carboxylic acid 1-benzenesulfonyl-5-chloro-3-(2-methoxy-pyridin-3-yl)-2-oxo-2,3-dihydro-1H-indol-3-yl ester] | < 50
CCOc1ccccc1C1(OC(=O)N2CCN(C3CCN(C)CC3)CC2)C(=O)N(S(=O)(=O)c2ccc(C)cn2)c2ccc(Cl)cc21 (stereo not shown) [Example 145, 4-(1-Methyl-piperidin-4-yl)-piperazine-1-carboxylic acid 5-chloro-3-(2-ethoxy-phenyl)-1-(5-methyl-pyridine-2-sulfonyl)-2-oxo-2,3-dihydro-1H-indol-3-yl ester] | < 50
COc1ccc(S(=O)(=O)N2C(=O)C(c3cccnc3OC)(N3CCC[C@H]3C(=O)N(C)C)c3ccccc32)c(OC)c1 (single isomer, unassigned) [Example 226] | 50 to 500
COc1ncccc1C1(OC(=O)N2CCN(C3CCN(C)CC3)CC2)C(=O)N(S(=O)(=O)c2ccsc2)c2ccc(Cl)cc21 (stereo not shown) [Example 171, 4-(1-Methyl-piperidin-4-yl)-piperazine-1-carboxylic acid 5-chloro-3-(2-methoxy-pyridin-3-yl)-2-oxo-1-(thiophene-3-sulfonyl)-2,3-dihydro-1H-indol-3-yl ester diacetate] | < 50
(2S,4R)-1-[5-Chloro-3-(2,4-dimethoxy-pyrimidin-5-yl)-1-(5-methyl-pyridine-2-sulfonyl)-2-oxo-2,3-dihydro-1H-indol-3-yl]-4-hydroxy-pyrrolidine-2-carboxylic acid dimethylamide [Example 289] | < 50
COc1ncccc1C1(OC(=O)N2CCN(C3CCN(C)CC3)CC2)C(=O)N(S(=O)(=O)c2cc3ccccc3s2)c2ccc(Cl)cc21 (stereo not shown) [Example 172, 4-(1-Methyl-piperidin-4-yl)-piperazine-1-carboxylic acid 1-(benzo[b]thiophene-2-sulfonyl)-5-chloro-3-(2-methoxy-pyridin-3-yl)-2-oxo-2,3-dihydro-1H-indol-3-yl ester diacetate] | 50 to 500
